Read-outs that look alike come from different tables or passages of the source.
Tests used:
[1] = system: P. caledonica (NBRC/ATCC #102488); assay: Antibacterial resazurin assay, laboratory strain; details: for EC50 / EC90: Paraburkholderia caledonica, ATCC102488, 18 h; for EC50: read-out: Pcal EC50; for EC90: read-out: Pcal EC90; for Selectivity index P. caledonica: mean of MCF-7 and HepG2 EC50 over bacterial EC50, laboratory strain
[2] = system: P. carotovorum (NBRC/ATCC #3380); assay: Antibacterial resazurin assay, laboratory strain; details: for EC90: read-out: Pcar EC90; for Selectivity index P. carotovorum: mean of MCF-7 and HepG2 EC50 over bacterial EC50, laboratory strain
[3] = Cytotoxicity assay (PrestoBlue) HepG2; format: cell-based; details: human, HepG2 cells (hepatoma cell line), 24 h incubation
Description: The cytotoxicity levels of all compounds were evaluated against human Michigan Cancer Foundation-7 (MCF-7) and Hepatoma G2 cell line (HepG2) cell lines. MCF-7 is an extensively characterized breast cancer cell line isolated in 1970 [41], while HepG2 cells were derived from a hepatoma in 1975 [42]. Both cell lines grow robustly during in vitro culture and have been widely used for cytotoxicity testing. Cells of hepatic origin, such as HepG2, are of particular relevance for toxicity studies as many drugs accumulate in the liver during metabolic conversion. Cells were grown in Dulbecco’s Modified Eagle Medium supplemented with 10% fetal calf serum and kept in exponential growth, as previously reported. Before the assay, cells were reseeded into 96-well microtiter plates at a density allowing continued exponential growth and let to settle for 24 h. The compounds were added from a stock solution in DMSO, for a final concentration of 0.3% v/v of the solvent in the culture medium. After 24 h of incubation in presence of the compound, cell viability was assayed using PrestoBlue Cell Viability Reagent (resazurin-based solution, ThermoFisher, Waltham, MA, USA) according to the manufacturer’s instructions. […] Each assay contained a DMSO control at the equivalent starting concentration, positive control (uninhibited cell growth) and negative control (cell medium only). Survival was expressed as percentage of the solvent-only control. […] The Selectivity Index (SI) for each compound and bacterial strain was calculated as the ratio between the mean of the EC50 values for the two human cell lines and the EC50 for the bacterial strain in question ((EC50 MCF-7 + EC50 HepG2)/2)/EC50 bacterial strain).

[4] = system: B. subtilis (NBRC/ATCC #111470); assay: Antibacterial resazurin assay, laboratory strain; details: for EC50 / EC90: Bacillus subtilis, ATCC111470, 18 h; for EC50: read-out: Bsu EC50; for EC90: read-out: Bsu EC90; for Selectivity index B. subtilis: mean of MCF-7 and HepG2 EC50 over bacterial EC50, laboratory strain
[5] = system: P. putida (NBRC/ATCC #100650); assay: Antibacterial resazurin assay, laboratory strain; details: for EC90: read-out: Ppu EC90; for Selectivity index P. putida: mean of MCF-7 and HepG2 EC50 over bacterial EC50, laboratory strain
[6] = system: E. hormaechei (CCUG #58962); assay: Antibacterial activity against isolates (Omnilog, Biolog redox dye); format: cell-based, Enterobacter hormaechei; details: for EC50 / EC90: Enterobacter hormaechei, CCUG58962, ca-MH broth, 24 h, 37 °C; for Selectivity index E. hormaechei (CCUG #58962): SI = ((EC50 MCF-7 + EC50 HepG2)/2)/EC50 bacterial strain
Description: The antibacterial activities of eight compounds (1, 3, 4, 6, 8, 10, 16, and 17) were tested against 10 different isolates of Gram-negative bacteria from human and other sources, two E. coli (CCUG #67180 and CCUG #17620/ATCC #25922, control strain), two K. pneumoniae (CCUG #58547 and CCUG #225T), two P. aeruginosa (CCUG #17619 and CCUG #59347), two A. baumannii (CCUG #57035 and CCUG #57250), E. cloacae (CCUG #6323T), and E. hormaechei (CCUG #58962) in a 96-well plate format. […] Bacterial mass from the ten isolates grown overnight on horse blood or Mueller–Hinton agar plates was suspended in ca-MH and adjusted to a final inoculum cell density of ~5 × 10^5 CFU/mL. For all assays, Biolog redox dye A diluted 100× from the stock solution was used for measurements of all ten isolates (up to a total volume of 120 µL per well). All plates included one well per isolate with only inoculum and dye but no test compound (i.e., positive control) and one well per isolate with inoculum, dye and DMSO diluted 1667×, corresponding to the DMSO concentration in the wells with the highest concentration of test compound. All measurements were performed using the Omnilog microplate reader (Biolog, Hayward, CA, USA) where the 96-well plates were read at 15 min intervals for a total of 24 h at 37 °C.

[7] = system: A. baumannii (CCUG #57250); assay: as above; format: cell-based, Acinetobacter baumannii; details: for EC90 / EC50: ca-MH broth, 24 h, 37 °C; for EC50: CCUG57250; for Selectivity index A. baumannii (CCUG #57250): SI = ((EC50 MCF-7 + EC50 HepG2)/2)/EC50 bacterial strain
Description: (§1) The antibacterial activities of eight compounds (1, 3, 4, 6, 8, 10, 16, and 17) were tested against 10 different isolates of Gram-negative bacteria from human and other sources, two E. coli (CCUG #67180 and CCUG #17620/ATCC #25922, control strain), two K. pneumoniae (CCUG #58547 and CCUG #225T), two P. aeruginosa (CCUG #17619 and CCUG #59347), two A. baumannii (CCUG #57035 and CCUG #57250), E. cloacae (CCUG #6323T), and E. hormaechei (CCUG #58962) in a 96-well plate format. The compounds to test were 3-fold diluted in six steps in cation-adjusted Mueller-Hinton (ca-MH) broth to final concentrations spanning from 30 to 0.12 µM, i.e., a 1667–416,667 times dilution from the 50 mM stocks. Bacterial mass from the ten isolates grown overnight on horse blood or Mueller–Hinton agar plates was suspended in ca-MH and adjusted to a final inoculum cell density of ~5 × 10^5 CFU/mL. For all assays, Biolog redox dye A diluted 100× from the stock solution was used for measurements of all ten isolates (up to a total volume of 120 µL per well). All plates included one well per isolate with only inoculum and dye but no test compound (i.e., positive control) and one well per isolate with inoculum, dye and DMSO diluted 1667×, corresponding to the DMSO concentration in the wells with the highest concentration of test compound. All measurements were performed using the Omnilog microplate reader (Biolog, Hayward, CA, USA) where the 96-well plates were read at 15 min intervals for a total of 24 h at 37 °C.

E. cloacae (CCUG #6323T) = assay: as above; format: cell-based, Enterobacter cloacae; details: for EC50 / EC90: Enterobacter cloacae, ca-MH broth, 24 h, 37 °C; for Selectivity index E. cloacae (CCUG #6323T): SI = ((EC50 MCF-7 + EC50 HepG2)/2)/EC50 bacterial strain
Description: as §1

[8] = system: K. pneumoniae (CCUG #225T); assay: as above; format: cell-based, Klebsiella pneumoniae; details: for EC50 / EC90: Klebsiella pneumoniae, ca-MH broth, 24 h, 37 °C; for Selectivity index K. pneumoniae (CCUG #225T): SI = ((EC50 MCF-7 + EC50 HepG2)/2)/EC50 bacterial strain
Description: as §1

[9] = Pectobacterium carotovorum, ATCC3380, 18 h, read-out: Pcar EC50, laboratory strain, 18 h, 37 °C, AlamarBlue
[10] = Pectobacterium carotovorum, ATCC3380, 18 h
[11] = Pseudomonas putida, ATCC100650, 18 h, read-out: Ppu EC50, laboratory strain, 18 h, 37 °C, AlamarBlue
[12] = Pseudomonas putida, ATCC100650, 18 h
[13] = Acinetobacter baumannii, CCUG57250, 24 h
[14] = read-out: Pcar EC50, laboratory strain, 18 h, 37 °C, AlamarBlue
[15] = read-out: Ppu EC50, laboratory strain, 18 h, 37 °C, AlamarBlue

Row | Compound | EC50 [1] [µM] | EC90 [1] [µM] | Selectivity index P. caledonica [1] | EC50 [2, 9] [µM] | EC90 [2, 10] [µM] | Selectivity index P. carotovorum [2] | EC50 at 24 h [3] [µM] | EC50 [4] [µM] | EC90 [4] [µM] | EC50 [5, 11] [µM] | EC90 [5, 12] [µM] | Selectivity index P. putida [5] | EC50 [6] [µM] | EC90 [6] [µM] | Selectivity index E. hormaechei (CCUG #58962) [6] | EC90 [7, 13] [µM] | EC50 ([7]; Acinetobacter baumannii) [µM] | EC50 (E. cloacae (CCUG #6323T)) [µM] | EC90 (E. cloacae (CCUG #6323T)) [µM] | Selectivity index E. cloacae (CCUG #6323T) (E. cloacae (CCUG #6323T)) | other results
1 | N=C(N)Nc1ccc(-c2ccc(-c3ccc(NC(=N)N)cc3Cl)o2)c(Cl)c1 [Compound 1, 2,5-Bis(2-chloro-4-guanidinophenyl)furan] | 20.3 | 136 | 1.9 | 67.1 | 115 | 0.6 | 43.4 | 25.4 | 136 | 258 | 517 | 0.2 | 7.7 | 9.1 | 5.0 | 6.6 | 4.4 | 1 | 1.2 | 37.2 | Selectivity index B. subtilis [4]: 1.5; Selectivity index A. baumannii (CCUG #57250) [7]: 8.7; EC50 [8]: 2.7 µM; EC90 [8]: 3.2 µM; Selectivity index K. pneumoniae (CCUG #225T) [8]: 14.4
2 | N=C(N)Nc1ccc(-c2ccc(-c3ccc(NC(=N)N)cc3)o2)cc1 [Compound 3] | 4.5 | 18.9 | 27.4 | 34.6 | 79 | 3.6 | 185 | 11.2 | 22.5 | 8.3 | 14.3 | 15.0 | 7.6 | 9.1 | 16.4 | 2.4 | 1.7 | 1.5 | 2.5 | 83.1 | Selectivity index B. subtilis [4]: 11.1; EC90 [7]: 2.3 µM; EC50 [8]: 2.8 µM; EC90 [8]: 3.1 µM; Selectivity index K. pneumoniae (CCUG #225T) [8]: 45.2
3 | Cc1cc(NC(=N)N)ccc1-c1ccc(-c2ccc(NC(=N)N)cc2C)o1 [Compound 4, 2,5-Bis(4-guanidino-2-methylphenyl)furan] | 8.2 | 51.9 | 9.2 | ~28.5 | 37.3 | 2.6 | 51.3 | 6.2 | 8.5 | ~14.4 | 59.6 | 5.2 | 21.9 | 25.9 | 3.4 | 22.5 | 15.8 | 3.7 | 7.4 | 20.7 | EC50 [2, 14]: 28.6 µM; Selectivity index B. subtilis [4]: 12.2; EC50 [5, 15]: 14.5 µM; Selectivity index A. baumannii (CCUG #57250) [7]: 4.8; EC50 [8]: 15.3 µM; EC90 [8]: 22.7 µM; Selectivity index K. pneumoniae (CCUG #225T) [8]: 4.9
4 | COc1cc(NC(=N)N)ccc1-c1ccc(-c2ccc(NC(=N)N)cc2OC)o1 [Compound 6, 2,5-Bis(4-guanidino-2-methoxyphenyl)furan] | 25.6 | 35.6 | 5.6 | ~28.5 | 45 | 5.1 | 213 | > 300 | > 300 | ~14.4 | 19.7 | 10.1 | 15.9 | 22.9 | 9.0 | 8.8 | 7.6 | 5.3 | 8.4 | 27.4 | EC50 [2, 14]: 28.4 µM; EC50 [5, 15]: 14.3 µM; Selectivity index A. baumannii (CCUG #57250) [7]: 19.0; EC50 [8]: 10.3 µM; EC90 [8]: 12.7 µM; Selectivity index K. pneumoniae (CCUG #225T) [8]: 14.0
